For one assay, the system named is NCI-H1563. The experiment in a line: relative viability (nuclei count vs DMSO), 5 days (fraction); higher = more cells survive. Particulars: first compound 8 µM. A digest of the protocol:
(§1)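 Lung cancer cell lines in 1536-well plates got either a single drug or a fixed anchor-drug dose together with five library-drug doses (not always all listed) in √10 steps, by pin tool, on the day after seeding. Nuclei were counted after 5 days, and relative viability is the treated-to-vehicle ratio of nuclei counts. Values are medians of duplicate plates.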
In turn, `CCCCCCCCCCCC1=C(O)C(=O)C=C(O)C1=O` [Embelin] + CCNC(=O)c1noc(-c2cc(C(C)C)c(O)cc2O)c1-c1ccc(CN2CCOCC2)cc1 [Luminespib] (partner 0.01 µM) came in with a relative viability of 0.487.
On the same count and under the same terms, to `CCCCCCCCCCCC1=C(O)C(=O)C=C(O)C1=O` [Embelin] + Cc1nc(Nc2ncc(C(=O)Nc3c(C)cccc3Cl)s2)cc(N2CCN(CCO)CC2)n1 [Dasatinib] (partner 0.075 µM) belongs 0.387; to `CCCCCCCCCCCC1=C(O)C(=O)C=C(O)C1=O` [Embelin] + COc1cccc2cc(-c3nc([C@H]4CC[C@H](C(=O)O)CC4)n4ncnc(N)c34)[nH]c12 [OSI-027] (partner 0.5 µM), 0.758; to `CCCCCCCCCCCC1=C(O)C(=O)C=C(O)C1=O` [Embelin] + Nc1nc2[nH]cc(CCc3ccc(C(=O)N[C@@H](CCC(=O)O)C(=O)O)cc3)c2c(=O)[nH]1 [Pemetrexed] (partner 0.2 µM), 0.713.

The subject of another assay is NCI-H1666. Described as above. Particulars: first compound 0.08 µM. A digest of the protocol: as §1
As for `CCCCCCCCCCCC1=C(O)C(=O)C=C(O)C1=O` [Embelin] + N=C(N)NC(=N)NCCc1ccccc1 [Phenformin] (partner 250 µM), the relative viability worked out at 0.57.
Still for that read-out and setting: to `CCCCCCCCCCCC1=C(O)C(=O)C=C(O)C1=O` [Embelin] + CCNC(=O)c1noc(-c2cc(C(C)C)c(O)cc2O)c1-c1ccc(CN2CCOCC2)cc1 [Luminespib] (partner 0.01 µM) belongs 1.04.
In the case of `CCCCCCCCCCCC1=C(O)C(=O)C=C(O)C1=O` [Embelin] + Cc1nc(Nc2ncc(C(=O)Nc3c(C)cccc3Cl)s2)cc(N2CCN(CCO)CC2)n1 [Dasatinib] (partner 0.075 µM), the relative viability worked out at 0.793.
The same measure, in the same setting: to `CCCCCCCCCCCC1=C(O)C(=O)C=C(O)C1=O` [Embelin] + COc1cccc2cc(-c3nc([C@H]4CC[C@H](C(=O)O)CC4)n4ncnc(N)c34)[nH]c12 [OSI-027] (partner 0.5 µM) belongs 0.798; to `CCCCCCCCCCCC1=C(O)C(=O)C=C(O)C1=O` [Embelin] + Nc1nc2[nH]cc(CCc3ccc(C(=O)N[C@@H](CCC(=O)O)C(=O)O)cc3)c2c(=O)[nH]1 [Pemetrexed] (partner 0.2 µM), 0.922.

Still in this assay, the particulars now being: first compound 0.8 µM.
In turn, `CCCCCCCCCCCC1=C(O)C(=O)C=C(O)C1=O` [Embelin] + N=C(N)NC(=N)NCCc1ccccc1 [Phenformin] (partner 250 µM) registered a relative viability of 0.631.
Still for that read-out and setting: to `CCCCCCCCCCCC1=C(O)C(=O)C=C(O)C1=O` [Embelin] + CCNC(=O)c1noc(-c2cc(C(C)C)c(O)cc2O)c1-c1ccc(CN2CCOCC2)cc1 [Luminespib] (partner 0.01 µM) belongs 1.01; to `CCCCCCCCCCCC1=C(O)C(=O)C=C(O)C1=O` [Embelin] + Cc1nc(Nc2ncc(C(=O)Nc3c(C)cccc3Cl)s2)cc(N2CCN(CCO)CC2)n1 [Dasatinib] (partner 0.075 µM), 0.88; to `CCCCCCCCCCCC1=C(O)C(=O)C=C(O)C1=O` [Embelin] + COc1cccc2cc(-c3nc([C@H]4CC[C@H](C(=O)O)CC4)n4ncnc(N)c34)[nH]c12 [OSI-027] (partner 0.5 µM), 0.935.
Still for that read-out and setting: to `CCCCCCCCCCCC1=C(O)C(=O)C=C(O)C1=O` [Embelin] + Nc1nc2[nH]cc(CCc3ccc(C(=O)N[C@@H](CCC(=O)O)C(=O)O)cc3)c2c(=O)[nH]1 [Pemetrexed] (partner 0.2 µM) belongs 0.894.

Staying with this assay, now noted: first compound 2.53 µM.
`CCCCCCCCCCCC1=C(O)C(=O)C=C(O)C1=O` [Embelin] + N=C(N)NC(=N)NCCc1ccccc1 [Phenformin] (partner 250 µM): the relative viability was found to be 0.507.
On the same count and under the same terms, to `CCCCCCCCCCCC1=C(O)C(=O)C=C(O)C1=O` [Embelin] + CCNC(=O)c1noc(-c2cc(C(C)C)c(O)cc2O)c1-c1ccc(CN2CCOCC2)cc1 [Luminespib] (partner 0.01 µM) belongs 1.04.
`CCCCCCCCCCCC1=C(O)C(=O)C=C(O)C1=O` [Embelin] + Cc1nc(Nc2ncc(C(=O)Nc3c(C)cccc3Cl)s2)cc(N2CCN(CCO)CC2)n1 [Dasatinib] (partner 0.075 µM) came in with a relative viability of 0.839.
On the same count and under the same terms, to `CCCCCCCCCCCC1=C(O)C(=O)C=C(O)C1=O` [Embelin] + COc1cccc2cc(-c3nc([C@H]4CC[C@H](C(=O)O)CC4)n4ncnc(N)c34)[nH]c12 [OSI-027] (partner 0.5 µM) belongs 0.871; to `CCCCCCCCCCCC1=C(O)C(=O)C=C(O)C1=O` [Embelin] + Nc1nc2[nH]cc(CCc3ccc(C(=O)N[C@@H](CCC(=O)O)C(=O)O)cc3)c2c(=O)[nH]1 [Pemetrexed] (partner 0.2 µM), 0.849.

Still in this assay, the particulars now being: first compound 8 µM.
The compound `CCCCCCCCCCCC1=C(O)C(=O)C=C(O)C1=O` [Embelin] + N=C(N)NC(=N)NCCc1ccccc1 [Phenformin] (partner 250 µM) yielded a relative viability of 0.575.
Still for that read-out and setting: to `CCCCCCCCCCCC1=C(O)C(=O)C=C(O)C1=O` [Embelin] + CCNC(=O)c1noc(-c2cc(C(C)C)c(O)cc2O)c1-c1ccc(CN2CCOCC2)cc1 [Luminespib] (partner 0.01 µM) belongs 1.01.
`CCCCCCCCCCCC1=C(O)C(=O)C=C(O)C1=O` [Embelin] + Cc1nc(Nc2ncc(C(=O)Nc3c(C)cccc3Cl)s2)cc(N2CCN(CCO)CC2)n1 [Dasatinib] (partner 0.075 µM) had a relative viability of 0.852.
As to `CCCCCCCCCCCC1=C(O)C(=O)C=C(O)C1=O` [Embelin] + COc1cccc2cc(-c3nc([C@H]4CC[C@H](C(=O)O)CC4)n4ncnc(N)c34)[nH]c12 [OSI-027] (partner 0.5 µM), the relative viability amounted to 0.865.
Turning to `CCCCCCCCCCCC1=C(O)C(=O)C=C(O)C1=O` [Embelin] + Nc1nc2[nH]cc(CCc3ccc(C(=O)N[C@@H](CCC(=O)O)C(=O)O)cc3)c2c(=O)[nH]1 [Pemetrexed] (partner 0.2 µM), the relative viability is 0.817.

In the next assay the test system is NCI-H1755. The assay is described as above. The conditions noted are these: first compound 0.08 µM. A digest of the protocol:
as §1
As to `CCCCCCCCCCCC1=C(O)C(=O)C=C(O)C1=O` [Embelin] + N=C(N)NC(=N)NCCc1ccccc1 [Phenformin] (partner 250 µM), the relative viability worked out at 0.646.
Turning to `CCCCCCCCCCCC1=C(O)C(=O)C=C(O)C1=O` [Embelin] + CCNC(=O)c1noc(-c2cc(C(C)C)c(O)cc2O)c1-c1ccc(CN2CCOCC2)cc1 [Luminespib] (partner 0.01 µM), the relative viability is 0.257.
On the same count and under the same terms, to `CCCCCCCCCCCC1=C(O)C(=O)C=C(O)C1=O` [Embelin] + Cc1nc(Nc2ncc(C(=O)Nc3c(C)cccc3Cl)s2)cc(N2CCN(CCO)CC2)n1 [Dasatinib] (partner 0.075 µM) belongs 0.368.
The same measure, in the same setting: to `CCCCCCCCCCCC1=C(O)C(=O)C=C(O)C1=O` [Embelin] + COc1cccc2cc(-c3nc([C@H]4CC[C@H](C(=O)O)CC4)n4ncnc(N)c34)[nH]c12 [OSI-027] (partner 0.5 µM) belongs 0.829; to `CCCCCCCCCCCC1=C(O)C(=O)C=C(O)C1=O` [Embelin] + Nc1nc2[nH]cc(CCc3ccc(C(=O)N[C@@H](CCC(=O)O)C(=O)O)cc3)c2c(=O)[nH]1 [Pemetrexed] (partner 0.2 µM), 0.448.

Staying with this assay, now noted: first compound 0.8 µM.
On to `CCCCCCCCCCCC1=C(O)C(=O)C=C(O)C1=O` [Embelin] + N=C(N)NC(=N)NCCc1ccccc1 [Phenformin] (partner 250 µM), for which the relative viability was 0.656.
The same measure, in the same setting: to `CCCCCCCCCCCC1=C(O)C(=O)C=C(O)C1=O` [Embelin] + CCNC(=O)c1noc(-c2cc(C(C)C)c(O)cc2O)c1-c1ccc(CN2CCOCC2)cc1 [Luminespib] (partner 0.01 µM) belongs 0.603.

These data come from the supplement of paper PMC10307832.
